Test results published in patent publication US8318812B2, “Therapeutic agents for the treatment of lymphoid malignancies” (The Ohio State University Research Foundation, priority 2006, dated 2012).

What was measured:
PP2A = PP2A activity (malachite green phosphatase assay) in lysates of CLL cells; assay type: cell-based, Human; conditions: 10 uM FTY720
Procedure: PP2A Activity: The protein phosphatase activity of total cellular lysate was determined by measuring the generation of free PO4 from the threonine phosphopeptide using the malachite green-phosphate complex assay as described by the manufacturer (Upstate, Charlottesville, […].). Cell lysates were prepared in a low detergent lysis buffer (1% Nonidet P-40, 10 mM HEPES, 0.5M NaCl, 10% Glycerol, 1 mM PMSF, 5 mM Benzamidine, 10 μg/ml leupeptin). The phosphatase assay was performed in a PP2A-specific reaction buffer (Upstate) using 750 μM phosphopeptide substrate. After 30-min incubation at 30° C. malachite dye was added, and free phosphate was measured by optical density at 650 nm. To avoid variability among different immunoprecipitated samples, the phosphatase activities were normalized with the amount of PP2A immunoprecipitated, as detected and quantified by western blot analysis of each treatment group.
In order to determine if FTY720 induced activation of PP2A enzyme in CD19^+ B cells from CLL patients were treated with 10 uM FTY720 for 0, 1, 2, 3, 4 and 15 hrs and the PP2A activity in the lysates were quantified using a functional assay following immunoprecipitation of PP2A enzyme. As reported previously in other systems, FTY720 induced a consistent 2-3 fold increase in PP2A activation with the peak response observed at 4 hour post treatment (FIG. 6a). […] Similar phenomenon was also observed in Ramos B cell line. FTY720 induced activation of PP2A in Ramos cell line as early as 3 hours and this induced PP2A activity was inhibited by okadaic acid (FIG. 7a-b).

[1] = system: PARP, Caspase 3, caspase 8 and caspase 9; assay: Western blot of PARP and caspases 3, 8, 9 in CLL cells; assay type: cell-based, Human
Procedure: Western blotting. Immunoblot assays were performed as described previously.(34) Cell lysates were prepared and quantified by the bicin choninic acid (BCA) method (Pierce, Rockford, Ill.). Lysates with 50 μg of total protein were separated using 10% sodium dodecyl sulfate-polyacrylamide-gel electrophoresis, and transferred to 0.2 μm nitrocellulose membranes (Schleicher & Schuell, Keene, N.H.). The blots were probed with indicated primary antibodies followed by Horseradish peroxidase (HRP)-conjugated goat anti-rabbit IgG or goat anti-mouse IgG (Bio-Rad Laboratories, Richmond, Calif.). Detection was made with chemiluminescent substrate (SuperSignal, Pierce Inc. Rockford, Ill.). The PARP (Ab-2) and Caspase 9 antibodies were purchased from Oncogene/Calbiochem/EMD Biosciences (San Diego, Calif.). The Caspase 3 (AR-14 caspase 3/cpp32 and caspase 8 (AR-18) antibodies were kind gift from Dr. John Reed (Burnham Institute, La Jolla, Calif.).
FTY720 induced apoptosis in CLL cells is not dependent on activation of caspases, the cysteine proteases of CED3/ICE family Several therapeutic agents such as glucocorticoids and chemotherapeutic agents such as fludarabine, chlorambucil and 2-chloro-2-deoxyadenosine induce cellular cytotoxicity in CLL cells through activation of caspases, the cysteine proteases of CED3/ICE family. […]

Akt = assay: Western blot of p-Akt and Akt in primary MCL cells; assay type: cell-based, Human
Procedure: Primary MCL cells were isolated from PBMC (with informed patient consent under a protocol approved by IRB) as described before. All the MCL patients were identified as outlined by the World Health Organization (WHO) classification. Human mantle cell lymphoma patient cell lines (Mino and Jeko) were obtained from Dr. Raymond Lai. Primary cells or MCL cell lines were incubated in RPMI 1640 media, supplemented with 10%-20% heat-inactivated fetal bovine serum, 2 mM L-glutamine and penicillin (100 U/mL)/streptomycin ([…]) at 37° C. in an atmosphere of 5% CO2. FTY720 was synthesized as previously described. Toxicity was determined by flow cytometry using Annexin-V-FITC and Propidium Iodide (PI) staining. Apoptotic cells were identified as Annexin-V+ and/or PI+ cells. Cells excluding both FITC and PI were considered viable. Western Blotting was performed as described previously using indicated antibodies. […]
FTY720 induced apoptosis is associated with down-modulation of Cyclin D1 and Akt. […] To determine if the FTY720 induced apoptosis is mediated through modulation of these targets relevant to the pathogenesis of the disease, we evaluated the effect of FTY720 on levels of Cyclin D1, p-Akt and Akt proteins by Wester Blotting analysis using specific antibodies in primary MCL cells and cell lines. […]

Jeko cells = assay: Annexin V/PI toxicity in Jeko cells; assay type: cell-based; conditions: Homo sapiens, WinNolin sigmoid inhibitory model
Procedure: (§1) Primary MCL cells were isolated from PBMC (with informed patient consent under a protocol approved by IRB) as described before. All the MCL patients were identified as outlined by the World Health Organization (WHO) classification. Human mantle cell lymphoma patient cell lines (Mino and Jeko) were obtained from Dr. Raymond Lai. Primary cells or MCL cell lines were incubated in RPMI 1640 media, supplemented with 10%-20% heat-inactivated fetal bovine serum, 2 mM L-glutamine and penicillin (100 U/mL)/streptomycin ([…]) at 37° C. in an atmosphere of 5% CO2. FTY720 was synthesized as previously described. Toxicity was determined by flow cytometry using Annexin-V-FITC and Propidium Iodide (PI) staining. Apoptotic cells were identified as Annexin-V+ and/or PI+ cells. Cells excluding both FITC and PI were considered viable. Western Blotting was performed as described previously using indicated antibodies. The PARP (Ab-2) and Caspase 9 antibodies were purchased from Oncogene/Calbiochem/EMD Biosciences (San Diego, Calif.). Cyclin D1, Akt, Actin, Mcl-1, p-ERK, ERK and Bcl-2 were obtained from Santa Cruz biotech (Santa Cruz, Calif.).
(§2) Several therapeutic agents, including fludarabine, chlorambucil, 2-chloro-2-deoxyadenosine and glucocorticoids, induce toxicity in B cell malignancies through activating caspases, the cysteine proteases of CED3/ICE family. […]

primary MCL cells = assay: Annexin V/PI toxicity in primary MCL cells; assay type: cell-based; conditions: Homo sapiens, WinNolin sigmoid inhibitory model
Procedure: as §1, §2

[2] = system: acute myeloid leukemia (AML) cell lines; assay: MTS proliferation assay in AML cell lines; assay type: cell-based; conditions: 48 hours
Procedure: Cell cultures were exposed for 48 hours to vehicle control and increasing concentrations of FTY720, and subsequently subjected to MTS assay per manufacturer's instructions. Mean concentrations (FIG. 9A) at which proliferation was inhibited by 50% (IC50) and representative dose curves (FIG. 9B) are shown. […] Using MTS assay, inhibition of cell proliferation for various derivatives was examined.

Mino cells = assay: Annexin V/PI toxicity in Mino cells; assay type: cell-based, Human; conditions: Homo sapiens, WinNolin sigmoid inhibitory model
Procedure: as §1
Several therapeutic agents, including fludarabine, chlorambucil, 2-chloro-2-deoxyadenosine and glucocorticoids, induce toxicity in B cell malignancies through activating caspases, the cysteine proteases of CED3/ICE family. Inhibition of these caspases results in abrogation of apoptosis mediated by the toxic stimuli. To determine if caspase activation is involved in FTY720-induced cytotoxicity in MCL, we pretreated Mino cells with 150 μM broad spectrum caspase inhibitor z-VAD-fmk. […] Activation of caspases results in cleavage of key cellular proteins including poly-ADP-ribose polymerase (PARP).

PARP = assay: Western blot of PARP processing in Mino cells; assay type: cell-based, Human; conditions: Mino cells 24 hrs post treatment
Procedure: as §1, §2

For `CCCCCCCCc1ccc(CCC(N)(CO)CO)cc1.Cl` [FTY720, 2-Amino-2-[2-(4-octylphenyl)ethyl]propane 1,3-diol hydrochloride], the “increase in PP2A activation” value (PP2A) was 2-3 fold, the “time of peak PP2A response” value (PP2A) was 4 h and the PARP cleavage ([1]; 24 and 48 hours post treatment, CLL cells) was “failed to reveal PARP cleavage”. For the same compound, the “caspases 3, 8 and 9 activation” value ([1]; FTY720 treated CLL cells) was “remained in precursor forms”, the p-Akt level (Akt) was “decrease in p-Akt” and the IC50 (Jeko cells) was 4.46 µM. The IC50 (primary MCL cells) was 10.7 µM, the “proliferation of AML cell lines (MTS)” value [2] was “inhibits proliferation” and the IC50 (Mino cells) was 11.9 µM. The PARP processing (PARP) was “PARP processing comparable to the levels seen with Fludarabine”.
